# Assay: xn = mol fraction of the nth substance listed
# Conditions: 101 kPa
compound,measurement,setting,value
CCCC[n+]1ccn(C)c1.N[C@@H](CCC(=O)O)C(=O)[O-] + CO,viscosity,"298.15 K, x2 = 0.1087",59.8 mPa·s
same,viscosity,"298.15 K, x2 = 0.4003",24.6 mPa·s
same,viscosity,"298.15 K, x2 = 0.4998",16.4 mPa·s
same,viscosity,"298.15 K, x2 = 0.6002",9.69 mPa·s
same,viscosity,"298.15 K, x2 = 0.8001",2.31 mPa·s
same,viscosity,"303.15 K, x2 = 0.1087",49.9 mPa·s
same,viscosity,"303.15 K, x2 = 0.2002",39.6 mPa·s
same,viscosity,"303.15 K, x2 = 0.2995",30.3 mPa·s
same,viscosity,"303.15 K, x2 = 0.4003",22.2 mPa·s
same,viscosity,"303.15 K, x2 = 0.4998",15.3 mPa·s
same,viscosity,"303.15 K, x2 = 0.7",5.48 mPa·s
same,viscosity,"303.15 K, x2 = 0.8001",2.82 mPa·s
same,viscosity,"303.15 K, x2 = 0.9",1.48 mPa·s
same,viscosity,"308.15 K, x2 = 0.1087",39.1 mPa·s
same,viscosity,"308.15 K, x2 = 0.2002",31.2 mPa·s
same,viscosity,"308.15 K, x2 = 0.2995",24.1 mPa·s
same,viscosity,"308.15 K, x2 = 0.4003",18.1 mPa·s
same,viscosity,"308.15 K, x2 = 0.4998",12.9 mPa·s
same,viscosity,"308.15 K, x2 = 0.7",5.2 mPa·s
same,viscosity,"308.15 K, x2 = 0.9",1.33 mPa·s
same,viscosity,"313.15 K, x2 = 0.1087",31.6 mPa·s
same,viscosity,"313.15 K, x2 = 0.2995",20 mPa·s
same,viscosity,"313.15 K, x2 = 0.4003",15 mPa·s
same,viscosity,"313.15 K, x2 = 0.4998",10.8 mPa·s
same,viscosity,"313.15 K, x2 = 0.6002",7.3 mPa·s
same,viscosity,"313.15 K, x2 = 0.8001",2.54 mPa·s
same,viscosity,"313.15 K, x2 = 0.9",1.24 mPa·s

# Reference: a compilation of properties of binary mixtures (doi:10.1007/s10953-011-9788-x)
